13 molecules from publication PMC9612231, “Antileishmanial Anthracene Endoperoxides: Efficacy In Vitro, Mechanisms and Structure-Activity Relationships” (Molecules, 2022) can be followed below.

Assay [1] concerns Leishmania tarentolae promastigotes (LtP). Kind of assay: Resazurin viability assay for LtP. Format: cell-based. The settings on record: for IC50: Leishmania tarentolae, read-out: LtP IC50; for Selectivity IC50,J774/IC50,LtP: ratio of IC50 in J774 macrophages to IC50 in LtP; for IC50,non-EP/IC50,EP: ratio of IC50 of non-EP in LtP versus IC50 of respective EP. On the procedure: (§1) The influence of AcEP and their analogs (Ac) on the viability of cells was tested in Leishmania tarentolae promastigotes (LtP) and J774 macrophages (Table 2). Based on the changes of viability of the respective cell lines at different compound concentrations, IC50 values were calculated. In Table 2, the IC50 values in both cell lines were compared for the individual compounds. From the ratio of IC50 values in J774 macrophages to IC50 values in LtP, an in vitro selectivity was calculated.
LtP (strain P10 from Jena Bioscience, Jena, Germany) were cultivated according to manufacturer instructions up to passage 50 in brain heart infusion medium (37 g/L, pH 7.4) and supplemented with 5 mg/L hemin and 25,000 IU/L penicillin and 25 mg/L streptomycin in 50 mL TubeSpin bioreactors (TPP, Trasadingen. Switzerland). LtP were grown at 27 °C in an incubator (Ehret, Emmendingen, Germany) and agitated at a frequency of 0.05 s^−1. […] For experiments, LtP were used one day after passage. The cell number was calculated by measuring the optical density (OD) of the culture at 600 nm with a U-1100 photometer (Hitachi Ltd., Tokyo, Japan) and applying the formula × 10^6 cells/mL = OD600nm × 0.969 × 124 × dilution factor [53].
Assay medium of YEM (20.7 g/L yeast extract powder, 1.2 g/L K2HPO4, 0.2 g/L KH2PO4, 2.9 g/L glucose, pH 7.4) and PBS (1:1, v/v), 25,000 U/L penicillin, 25 mg/L streptomycin, and 7.7 µM hemin was prepared. Aliquots of 200 µL of this medium and 2 × 10^6 LtP/mL (where required) were distributed in non-treated cell culture 96-well plates. Compounds (dissolved in DMSO) were added with starting concentrations of 25 µM (Pen) or 200 µM (AcEP/Ac), and then, serial dilutions were carried out resulting in a set of concentrations (25, 5, 1, 0.2, 0.04, and 0.008 µM) or (200, 40, 8, 1.6, 0.32, and 0.064 µM). For each compound concentration, at least triplicates on each plate were performed. After incubation of the plates at 27 °C for 48 h, 50 µL of resazurin solution (final concentration in wells 20 µM) was added to each well and after 4 h of incubation, the fluorescence was measured at 560 nm excitation and 590 nm emission using a plate reader (Perkin Elmer EnSpire, Rodgau, Germany) (adapted from). Combination assays for viability in the presence of PIH and NAC were performed the same way. […] All tests were repeated at least on four different weeks of cultivation.
(§2) Calculations were carried out using Microsoft Excel 2016 (Microsoft). The graphs were created using Origin 6.1 (OriginLab Corporation, Northampton, MA, USA). For all groups of experimental data, mean and standard deviation (SD) were calculated. Statistically significant differences between groups of sample data were identified by unpaired two-tailed Student’s t-test. Differences on the level of p < 0.05 were considered significant. The number of replicates is indicated at the respective figures/tables. The half-maximal inhibitory concentrations (IC50) were determined from non-linear concentration-response curves using a four-parameter logistic model and expressed as the mean ± SD.
(Alamar Blue is a resazurin reagent that responds to reducing activity.)

For the next assay, the system named is J774 macrophages. Briefly: Resazurin viability assay for J774 macrophages. Format: cell-based, murine. To be noted: read-out: J774 IC50. How it is done:
as §1
The murine macrophage cell line J774A.1 (ATCC, TIB-67™, Wesel, Germany) was cultivated up to passage 30 in DMEM (high glucose, 3.7 g/L NaHCO3, pH 7.4) with 25,000 IU/L penicillin, 25 mg/L streptomycin, and 10% FCS (heat-inactivated) in 50 mL TubeSpin bioreactors. J774 cells were incubated at 37 °C and 5% CO2 on a roller culture apparatus (5 rpm) in a Heraeus Cytoperm 8080 incubator (Thermo Electron Corp., Vienna, Austria). To determine the cell count, the cell suspension was re-suspended and diluted 1:2 with phosphate-buffered saline (PBS): 137 mM NaCl, 1.4 mM KH2PO4, 4.3 mM Na2HPO4, and 2.7 mM KCl, pH 7.4. After fixation of the cells by mixing the cell suspension 1:1 with a formaldehyde solution (2%, v/v), aliquots of the resulting suspension were transferred into a standard Neubauer chamber (VWR, Austria) and counted manually using a light microscope (Motic BA310, Vienna, Austria) at a magnification of 40 times. J774 cells were passaged twice a week in a ratio of 1:10.
DMEM containing 25,000 U/L penicillin, 25 mg/L streptomycin, 10% FCS, and 1 × 10^5 J774/mL was prepared. This mixture (200 µL) was distributed in cell culture-treated 96-well plates, except the control wells which contained only DMEM. The cells were incubated for 24 h at 37 °C and 5% CO2 to allow attachment. Afterwards the medium and non-adherent cells were removed by washing with PBS, and then, 200 µL DMEM was added to attached cells. Compounds dissolved in DMSO were added in starting concentrations of 25 µM (Pen) or 200 µM (AcEP/Ac), and then, serial dilutions were carried out resulting in the same concentration steps as listed for LtP. For each compound concentration triplicates on each plate were performed. […], 50 µL of resazurin solution (final concentration 20 µM) was added, and after 4 h of incubation, the fluorescence was measured at 560 nm excitation and 590 nm emission using a plate reader (Perkin Elmer EnSpire, Rodgau, Germany). All tests were repeated at least on four different weeks of cultivation.
as §2

The nature of assay [2]: Formation of the xylenol orange/Fe3+ complex by EP. The settings on record: AcEP and 250 µM FeSO4 in methanol/H2O (9:1); for XO/Fe^3+ Formation Rate: mean ± SD of 3 experiments. The source says: In subsequent experiments, we explored the activation of EP and possible cellular consequences of these compounds in Leishmania. In a chemical system, we tested how fast EP react with iron (II) and, therefore, lead to the activation of these compounds. Resulting iron (III) was detected as complex with xylenol orange (XO, Figure 3). The reaction rate of the EP stretched across two magnitudes of orders (Table 3). On the first view, there is no direct link between the activation rates and the efficiency of the compounds against Leishmania.
XO (125 µM) and butylated hydroxytoluene (4 mM) were dissolved in MeOH/H2O (9:1). FeSO4 (25 mM) in 2.5 M H2SO4 was prepared immediately before use (final concentration of 250 µM FeSO4 in the color reagent). An aliquot of 100 µL EP solution (final concentration of 100 µM) was transferred into a disposable cuvette (BRAND, Wertheim, Germany), and 1 mL of the color reagent was added. The EP that reacted slower were incubated for 0, 30, 60, and 90 min at 25 °C. The EP that reacted faster were measured every 5 s over 5 min. At these time points, the OD difference of the sample at 560 nm and 650 nm was determined using a MS1501 UV–VIS diode array spectrophotometer (Shimadzu, Kyoto, Japan). As reference, a mixture of MeOH/H2O (9:1) was used. The slope of the reaction rate was calculated using an extinction coefficient of 1.5 × 10^4 M^−1 cm^−1.

The mark [3] stands for this setting: resazurin viability, endpoint 48 h, 2 × 10^6 LtP/mL, mean ± SD of 4–8 experiments.
Where [4] appears, read: Mus musculus, J774, 48 h, resazurin viability, endpoint 48 h, 10^5 J774 cells/mL, mean ± SD of 4–8 experiments.

Where two headings read alike, the source gives them in different places.

Consider `c1ccc(-c2c3ccccc3c(-c3ccccn3)c3ccccc23)nc1` [oPyAc], for which the figures for the concentration for half-maximal inhibition (IC50) (in assay [1] (setting [3]); with J774 macrophages (setting [4])) were 34.5 ± 12.8 µM and 70 ± 10.5 µM, respectively. Moreover, the “Selectivity IC50,J774/IC50,LtP” value in assay [1] turned out to be 2.0.
With `c1ccc(-c2c3ccccc3c(-c3ccccc3)c3ccccc23)cc1` [DPAc], the results for the IC50 (in assay [1] (setting [3]); in the assay with J774 macrophages (setting [4])) were 197 ± 92 µM and 136 ± 35 µM, respectively. Besides, the “Selectivity IC50,J774/IC50,LtP” value in assay [1] worked out at 0.7. The “Activity against LtP, in words” value in assay [1] (viability assay) was “rather inactive”.
As for `N=C(N)c1ccc(OCCCCCOc2ccc(C(=N)N)cc2)cc1` [Pen, pentamidine, reference compound], the IC50 is 0.52 ± 0.16 µM in assay [1] (setting [3]); around 12 µM in the assay with J774 macrophages (setting [4]); 12.3 ± 3.96 µM with J774 macrophages (resazurin viability, endpoint 48 h, 10^5 J774 cells/mL, mean ± SD of 4–8 experiments). Moreover, the “LtP IC50” value in assay [1] (setting [3]) is “submicromolar”.
As for `COc1ccccc1-c1c2ccccc2c(-c2ccccc2OC)c2ccccc12` [oOMeAc], the IC50 in assay [1] (setting [3]) was 73.3 ± 25.2 µM; with J774 macrophages (setting [4]), above 200 µM. Moreover, in assay [1], the “Selectivity IC50,J774/IC50,LtP” value was above 2.7.
For `c1ccc2c(c1)C1OOC2c2ccccc21` [AcEP], the concentration for half-maximal inhibition (IC50) in assay [1] (setting [3]) is 19.7 ± 14.1 µM. In assay [1], the “Selectivity IC50,J774/IC50,LtP” value is given as 0.06 and the “IC50,non-EP/IC50,EP” value is recorded as above 10.1. For the same molecule, in the assay with J774 macrophages (setting [4]), the IC50 worked out at 1.21 ± 0.32 µM. Further, in assay [2], the “Log10 (Formation Rate)” value is given as 3.90 and the “XO/Fe^3+ Formation Rate” value stood at 8110 ± 4197 nmol/min.
Turning to `CC(=O)OCC1OC(OC23OOC(OC4OC(COC(C)=O)C(OC(C)=O)C(OC(C)=O)C4OC(C)=O)(c4ccccc42)c2ccccc23)C(OC(C)=O)C(OC(C)=O)C1OC(C)=O` (centres unmarked) [BisGluAcEP], the IC50 in assay [1] (setting [3]) was above 200 µM. Besides, the 50% inhibitory concentration (IC50) with J774 macrophages (setting [4]) was above 200 µM. Further, in assay [2], the “Log10 (Formation Rate)” value was determined as 3.83 and the “XO/Fe^3+ Formation Rate” value is listed as 6800 ± 326 nmol/min.
Consider `c1cncc(C23OOC(c4cccnc4)(c4ccccc42)c2ccccc23)c1` [mPyAcEP], for which, in assay [1] (setting [3]), the IC50 is above 200 µM. The “IC50,non-EP/IC50,EP” value in assay [1] is on record as below 0.26. Besides, the IC50 with J774 macrophages (setting [4]) was above 200 µM. In assay [2], the “Log10 (Formation Rate)” value stood at 2.85 and the “XO/Fe^3+ Formation Rate” value was 708 ± 37 nmol/min.
Consider `CC(=O)OCC1OC(Oc2c3ccccc3cc3ccccc23)C(OC(C)=O)C(OC(C)=O)C1OC(C)=O` (centres unmarked) [MonoGluAc], for which the half-inhibitory concentration (IC50) in assay [1] (setting [3]) came out at 158 ± 45.1 µM; in the assay with J774 macrophages (setting [4]) it was 101 ± 7.8 µM. For the same molecule, in assay [1], the “Selectivity IC50,J774/IC50,LtP” value was determined as 0.6.
Consider `c1cncc(-c2c3ccccc3c(-c3cccnc3)c3ccccc23)c1` [mPyAc], for which the concentration for half-maximal inhibition (IC50) was 52.5 ± 3.3 µM in assay [1] (setting [3]) and 63.7 ± 7.6 µM with J774 macrophages (setting [4]). The “Selectivity IC50,J774/IC50,LtP” value in assay [1] is 1.2.
For the molecule `CC(=O)OCC1OC(C23C=C(C(C)(C)C)C(C4OC(COC(C)=O)C(OC(C)=O)C(OC(C)=O)C4OC(C)=O)(OO2)c2ccccc23)C(OC(C)=O)C(OC(C)=O)C1OC(C)=O` (centres unmarked) [MB359EP], the IC50 (in assay [1] (setting [3]); in the assay on J774 macrophages (setting [4])) was above 200 µM in each case. In addition, the “Log10 (Formation Rate)” value in assay [2] came to 4.26. Further, the “XO/Fe^3+ Formation Rate” value in assay [2] was 18,533 ± 1147 nmol/min.
For `CC(=O)OCC1OC(OC23OOC(c4ccccc42)c2ccccc23)C(OC(C)=O)C(OC(C)=O)C1OC(C)=O` (centres unmarked) [MonoGluAcEP], the concentration for half-maximal inhibition (IC50) in assay [1] (setting [3]) was found to be 32.3 ± 23.4 µM. Also, in assay [1], the “Selectivity IC50,J774/IC50,LtP” value was determined as 4.7 and the “IC50,non-EP/IC50,EP” value amounted to 4.89. Moreover, the IC50 with J774 macrophages (setting [4]) was found to be 153 ± 82.1 µM. In assay [2], the “Log10 (Formation Rate)” value was determined as 4.10 and the “XO/Fe^3+ Formation Rate” value is recorded as 12,697 ± 1500 nmol/min.
For the molecule `CC(C)(C)c1ccc2c(-c3ccccn3)c3ccccc3c(-c3ccccn3)c2c1` [pPyBuAc], the IC50 in assay [1] (48 h) was determined as 1.86 ± 1.1 µM; in the assay on J774 macrophages (Mus musculus, J774, 48 h), 107 ± 46 µM. For the same molecule, in assay [1], the “Selectivity IC50,J774/IC50,LtP” value is recorded as 57.
With `CC(=O)OCC1OC(Oc2c3ccccc3c(OC3OC(COC(C)=O)C(OC(C)=O)C(OC(C)=O)C3OC(C)=O)c3ccccc23)C(OC(C)=O)C(OC(C)=O)C1OC(C)=O` (centres unmarked) [BisGluAc], the half-maximal inhibitory concentration (IC50) (in assay [1] (setting [3]); in the assay on J774 macrophages (setting [4])) was above 200 µM in each case.

A word on the IC50: it is the midpoint of a concentration-inhibition curve.
